Assay results published in patent US20110021355A1, “FORMULATION WITH REDUCED HYGROSCOPICITY” (BAYER TECHNOLOGY SERVICES GMBH, priority 2008, published 2011).

Assay: Final pH of the formulation after dissolution in 0.01-molar hydrochloric acid / release
Type: physicochemical
Details: 0.1 g solid in 100 g of 0.01-molar hydrochloric acid, 400 rpm (FIG. 2)
Procedure: For verification of the final pH after dissolution, 100 g of 0.01-molar hydrochloric acid was put in a beaker and stirred with an inclined-vane stirrer at 400 rpm. Then 0.1 g of the solid to be verified (formulation from example 1, and magnesium hydroxide) was added and the increase in pH was recorded (pH-meter: Knick®Calimatic 766).

**Q.** With [Mg+2].[OH-].[OH-] [pure magnesium hydroxide, magnesium hydroxide] as the compound, how does the “time after which the final pH is established” value read?
**A.** The value was “about 1800 s”.
